Test results as given in patent publication US20160090556A1, “PRODUCTS COMPRISING MALODOR REDUCTION MATERIALS” (The Procter & Gamble Company, priority 2014, published 2016).
Read-outs that look alike come from different tables or passages of the source.

Legend:
[1] = Probability of Ingredient Color Instability; format: physicochemical; details: for Comment Code: Probability of Ingredient Color Instability: codes E/F of the Comment Code, Table 1
[2] = Liquid dish neat product liquid-air partition coefficient; format: physicochemical
[3] = class code letter within Comment Code
[4] = codes K/L of the Comment Code, Table 1

Row | Compound | Probability of Ingredient Color Instability (Comment Code E/F) [1, 3] | Log of liquid dish neat product liquid-air partition coefficient (Comment Code K/L) [2, 3] | Probability of Ingredient Color Instability (Comment Code E/F) [1] | Log of liquid dish neat product liquid-air partition coefficient (Comment Code K/L) [2] | further results
1 | CCCCCCCCCCCC=O [Material 178] | F (Probability of Ingredient Color Instability<71%) | K (Log of liquid dish neat product liquid-air partition coefficient greater than or equal to −7) |  |  | 
2 | CCCCCCC(CO)C(C)=O (stereo not shown) [Material 106] | F (Probability of Ingredient Color Instability<71%) | K (Log of liquid dish neat product liquid-air partition coefficient greater than or equal to −7) |  |  | 
3 | CC1CCC2(O1)C(C)(C)CCCC2(C)O (stereo not shown) [Material 893] |  |  | F (Probability of Ingredient Color Instability<71%) | K (Log of liquid dish neat product liquid-air partition coefficient greater than or equal to −7) | 
4 | CC(C=O)=CCC1C(C)=CCCC1(C)C (stereo not shown) [Material 1116] |  |  |  |  | Comment Code: Probability of Ingredient Color Instability [1]: F (Probability of Ingredient Color Instability<71%); Comment Code: Log of liquid dish neat product liquid-air partition coefficient [2, 4]: K (Log of liquid dish neat product liquid-air partition coefficient greater than or equal to −7)
5 | O=C(Oc1ccccc1)c1ccccc1 [Material 965] |  |  | F (Probability of Ingredient Color Instability<71%) | K (Log of liquid dish neat product liquid-air partition coefficient greater than or equal to −7) | 
6 | CCCCCCCCCCC=CC=O [Material 930] |  |  | F (Probability of Ingredient Color Instability<71%) | K (Log of liquid dish neat product liquid-air partition coefficient greater than or equal to −7) | 
7 | CC(C)(C=O)CC1=CCC2CC1C2(C)C (stereo not shown) [Material 925] |  |  | F (Probability of Ingredient Color Instability<71%) | K (Log of liquid dish neat product liquid-air partition coefficient greater than or equal to −7) | 
8 | CC1=CCCC2(C)OC2CCC(C)=CCC1 (racemic) [Material 568] |  |  | F (Probability of Ingredient Color Instability<71%) | K (Log of liquid dish neat product liquid-air partition coefficient greater than or equal to −7) | 
9 | CC(C)=CCCC(C)(O)C1CC=C(C)CC1 (stereo not shown) [Material 718] |  |  | F (Probability of Ingredient Color Instability<71%) | K (Log of liquid dish neat product liquid-air partition coefficient greater than or equal to −7) | 
10 | CC1=C(CCC(C)C=O)C(C)(C)CCC1 (stereo not shown) [Material 560] | F (Probability of Ingredient Color Instability<71%) | K (Log of liquid dish neat product liquid-air partition coefficient greater than or equal to −7) |  |  | 
11 | C=CC(C)CC/C=C(\C)CCC=O (stereo not shown) [Material 358] | F (Probability of Ingredient Color Instability<71%) | K (Log of liquid dish neat product liquid-air partition coefficient greater than or equal to −7) |  |  | 
12 | CC(C)=CCCC1=CCC(C)(C=O)CC1 (stereo not shown) [Material 988] |  |  | F (Probability of Ingredient Color Instability<71%) | K (Log of liquid dish neat product liquid-air partition coefficient greater than or equal to −7) | 
13 | CC1=CC2CC(C=O)C1CC2C(C)C (stereo not shown) [Material 142] | F (Probability of Ingredient Color Instability<71%) | K (Log of liquid dish neat product liquid-air partition coefficient greater than or equal to −7) |  |  | 
14 | C=C(OCC)C1C(C)(C)CC(=O)CC1(C)C [Material 182] | F (Probability of Ingredient Color Instability<71%) | K (Log of liquid dish neat product liquid-air partition coefficient greater than or equal to −7) |  |  | 
15 | CC1CC=CCCCCCCCC(=O)OCC1 (stereo not shown) [Material 52] | F (Probability of Ingredient Color Instability<71%) | K (Log of liquid dish neat product liquid-air partition coefficient greater than or equal to −7) |  |  | 
16 | CCCCCCCCCCCCCC=O [Material 36] | F (Probability of Ingredient Color Instability<71%) | K (Log of liquid dish neat product liquid-air partition coefficient greater than or equal to −7) |  |  | 
17 | CCC1=C(O)C(=O)C(C)O1 (stereo not shown) [Material 259] | F (Probability of Ingredient Color Instability<71%) | K (Log of liquid dish neat product liquid-air partition coefficient greater than or equal to −7) |  |  | 

Row | Compound | Probability of Ingredient Color Instability (Comment Code E/F) [1, 3] | Log of liquid dish neat product liquid-air partition coefficient (Comment Code K/L) [2, 3] | Probability of Ingredient Color Instability (Comment Code E/F) [1] | Log of liquid dish neat product liquid-air partition coefficient (Comment Code K/L) [2] | further results
18 | CC(C)c1ccc(CCC=O)cc1 [Material 826] |  |  | F (Probability of Ingredient Color Instability<71%) | K (Log of liquid dish neat product liquid-air partition coefficient greater than or equal to −7) | 
19 | CC=CC(=O)OC(C)C1CCCCC1 (stereo not shown) [Material 475] | F (Probability of Ingredient Color Instability<71%) | K (Log of liquid dish neat product liquid-air partition coefficient greater than or equal to −7) |  |  | 
20 | CC(C=O)Cc1ccc(C(C)C)cc1 (stereo not shown) [Material 478] | F (Probability of Ingredient Color Instability<71%) | K (Log of liquid dish neat product liquid-air partition coefficient greater than or equal to −7) |  |  | 
21 | CC(C)=CCCC1=CCC(C=O)CC1 (stereo not shown) [Material 211] | F (Probability of Ingredient Color Instability<71%) | K (Log of liquid dish neat product liquid-air partition coefficient greater than or equal to −7) |  |  | 
22 | CC1=C2CC(C(C)(C)O)CCC2(C)CCC1 (stereo not shown) [Material 329] | F (Probability of Ingredient Color Instability<71%) | K (Log of liquid dish neat product liquid-air partition coefficient greater than or equal to −7) |  |  | Comment Code: Log of liquid dish neat product liquid-air partition coefficient ([2]; code letters K, L): K (Log of liquid dish neat product liquid-air partition coefficient greater than or equal to −7)
23 | CC1(O)CCOC2(CCCCC2)C1 (stereo not shown) [Material 16] | F (Probability of Ingredient Color Instability<71%) | K (Log of liquid dish neat product liquid-air partition coefficient greater than or equal to −7) |  |  | 
24 | CC1=C2CCC3(C)OC3C2C(C)(C)CCC1 (stereo not shown) [Material 624] |  |  | F (Probability of Ingredient Color Instability<71%) | K (Log of liquid dish neat product liquid-air partition coefficient greater than or equal to −7) | Comment Code: Log of liquid dish neat product liquid-air partition coefficient ([2]; code letters K, L): K (Log of liquid dish neat product liquid-air partition coefficient greater than or equal to −7)
25 | CC1CC(C)(c2ccccc2)OC(C)O1 (stereo not shown) [Material 1126] |  |  |  |  | Comment Code: Probability of Ingredient Color Instability [1]: F (Probability of Ingredient Color Instability<71%); Comment Code: Log of liquid dish neat product liquid-air partition coefficient [2, 4]: K (Log of liquid dish neat product liquid-air partition coefficient greater than or equal to −7)
26 | CCCCCCCCCC(C)C=O (stereo not shown) [Material 103] | F (Probability of Ingredient Color Instability<71%) | K (Log of liquid dish neat product liquid-air partition coefficient greater than or equal to −7) |  |  | 
27 | CC(C)=CCCC(C)CCCC(C)C=O (stereo not shown) [Material 757] |  |  | F (Probability of Ingredient Color Instability<71%) | K (Log of liquid dish neat product liquid-air partition coefficient greater than or equal to −7) | 
28 | CC1(C)C2CC=C(CCC=O)C1C2 (stereo not shown) [Material 781] |  |  | F (Probability of Ingredient Color Instability<71%) | K (Log of liquid dish neat product liquid-air partition coefficient greater than or equal to −7) | 
29 | O=CCCC=C1CC2CC1C1CCCC21 (stereo not shown) [Material 418] | F (Probability of Ingredient Color Instability<71%) | K (Log of liquid dish neat product liquid-air partition coefficient greater than or equal to −7) |  |  | 
30 | CCCCCC1C(=O)CCC1CC(=O)OC (stereo not shown) [Material 1083] |  |  | F (Probability of Ingredient Color Instability<71%) | K (Log of liquid dish neat product liquid-air partition coefficient greater than or equal to −7) | 
31 | COC(C)(C)CCCC(C)CC=O (stereo not shown) [Material 126] | F (Probability of Ingredient Color Instability<71%) | K (Log of liquid dish neat product liquid-air partition coefficient greater than or equal to −7) |  |  | 
32 | CC(C)CCCC(C)CCCC(C)C=O (stereo not shown) [Material 741] |  |  | F (Probability of Ingredient Color Instability<71%) | K (Log of liquid dish neat product liquid-air partition coefficient greater than or equal to −7) | 
33 | C=CCc1ccc(OC(C)=O)c(OC)c1 [Material 374] | F (Probability of Ingredient Color Instability<71%) | K (Log of liquid dish neat product liquid-air partition coefficient greater than or equal to −7) |  |  | 
34 | C/C=C/c1cc(OC)c(OC)cc1OC [Material 924] |  |  | F (Probability of Ingredient Color Instability<71%) | K (Log of liquid dish neat product liquid-air partition coefficient greater than or equal to −7) | 
